pIC50: −log10 of the molar value. Read-outs that look alike come from different tables or passages of the source.
Columns and labels:
HSV-1 = test: cytopathic effects (CPE) assay, antiviral activity against HSV-1 in Hep-2 cells; type: cell-based, Herpes Simplex Virus 1; settings: Human alphaherpesvirus 1; HSV-1-infected Hep-2 cells, neutral red OD 540 nm, Reed-Muench; read-out: IC50 (anti-HSV-1 activity)
Method: The antiviral activities against HSV-1 were evaluated by a cytopathic effects (CPE) assay. Hep-2 monolayer cells were cultured with trypsin enzyme-digesting technique and transferred to 96-well plates. The HSV-1 virus was seeded in Hep-2 cells in 96-well plates, with 2% RPMI-1640 medium, and incubated at 37° C., 5% CO2. After more than 90% lesions, the virus-infected cells were repeatedly frozen and thawed 3 times, centrifuged, quantitative packed and stored at −80° C. Each tested compound was dissolved in 10 μl DMSO to make a homogeneous solution and the solution was diluted 10 times by half-and-half dilution with 2% RPMI-1640 medium. The gradient solution was added to the infected cells incubated in 96-well plates, Ribavirin was used as positive control. Normal cells were used as blank control. Infected cells were used as negative control. All samples were incubated at 37° C., 5% CO2. Pathological changes were observed once every hour, for 24 h. After 90% lesions in negative control, 1% neutral red was added after removal of liquid in 96-well plates. The OD value was determined at 540 nm. IC50 values of tested compounds were calculated by Reed-Muench methods.

[1] = cytotoxicity (TC50) accompanying the CPE assay; type: cell-based; settings: human

## C=C(C)[C@@H]1CC[C@](C)(/C=C/c2ccc3c(c2O)[C@@](O)(c2ccccc2)[C@H](OC)C(=O)N3)O1
HSV-1
  pIC50: 7.15
[1]
  CC50 at 24 h: 64.9 µM

## CO[C@@H]1C(=O)Nc2ccc(/C=C/[C@]3(C)CC[C@H](O)[C@@H](C)C3)c(O)c2[C@@]1(O)c1ccccc1
HSV-1
  pIC50: 6.68
[1]
  CC50 at 24 h: 36.9 µM

## NC(=O)c1ncn([C@@H]2O[C@H](CO)[C@@H](O)[C@H]2O)n1 [Ribavirin, reference compound]
HSV-1
  pIC50: 4.11
[1]; Hep-2 cells, read-out: TC50
  CC50 at 24 h: > 10000 µM
